PubChem BioAssay (NCI)
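Test compounds were applied to cells in 96-well plates for 48 hours at 5 doses. TGI: concentration producing complete growth inhibition.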

Key:
Assay in all cases: DTP human tumour cell line panel, 48 h
NCI-H460 lung = tested on: NCI-H460 lung
LOX IMVI melanoma = tested on: LOX IMVI melanoma
UACC-62 melanoma = tested on: UACC-62 melanoma
COLO 205 colon = tested on: COLO 205 colon
M19-MEL melanoma = tested on: M19-MEL melanoma
IGROV1 ovarian = tested on: IGROV1 ovarian
RXF-631 renal = tested on: RXF-631 renal
SNB-75 CNS = tested on: SNB-75 CNS
OVCAR-3 ovarian = tested on: OVCAR-3 ovarian
A549 NSCLC = tested on: A549 NSCLC
UACC-257 melanoma = tested on: UACC-257 melanoma
ACHN renal = tested on: ACHN renal
SF-539 CNS = tested on: SF-539 CNS
SK-MEL-2 melanoma = tested on: SK-MEL-2 melanoma
SR leukemia = tested on: SR leukemia
MALME-3M melanoma = tested on: MALME-3M melanoma
EKVX NSCLC = tested on: EKVX NSCLC
HCT-15 colon = tested on: HCT-15 colon
SW-620 colon = tested on: SW-620 colon
K-562 leukemia = tested on: K-562 leukemia
SNB-19 CNS = tested on: SNB-19 CNS
DMS 114 small cell lung = tested on: DMS 114 small cell lung
U251 CNS = tested on: U251 CNS
CAKI-1 renal = tested on: CAKI-1 renal
SK-OV-3 ovarian = tested on: SK-OV-3 ovarian
SN12C renal = tested on: SN12C renal
OVCAR-8 ovarian = tested on: OVCAR-8 ovarian
HCT-116 colon = tested on: HCT-116 colon
RXF 393 renal = tested on: RXF 393 renal
SNB-78 CNS = tested on: SNB-78 CNS
HL-60(TB) leukemia = tested on: HL-60(TB) leukemia
A498 renal = tested on: A498 renal
OVCAR-4 ovarian = tested on: OVCAR-4 ovarian
HCC-2998 colon = tested on: HCC-2998 colon
LXFL 529 NSCLC = tested on: LXFL 529 NSCLC
SK-MEL-5 melanoma = tested on: SK-MEL-5 melanoma
M14 melanoma = tested on: M14 melanoma
MOLT-4 leukemia = tested on: MOLT-4 leukemia
HOP-92 NSCLC = tested on: HOP-92 NSCLC
NCI-H226 lung = tested on: NCI-H226 lung
SF-295 CNS = tested on: SF-295 CNS
KM20L2 colon = tested on: KM20L2 colon
786-0 renal = tested on: 786-0 renal
NCI-H522 lung = tested on: NCI-H522 lung
HT29 colon = tested on: HT29 colon
UO-31 renal = tested on: UO-31 renal
RPMI-8226 leukemia = tested on: RPMI-8226 leukemia
SK-MEL-28 melanoma = tested on: SK-MEL-28 melanoma
HOP-62 NSCLC = tested on: HOP-62 NSCLC
DLD-1 colon = tested on: DLD-1 colon
TK-10 renal = tested on: TK-10 renal
NCI-H23 lung = tested on: NCI-H23 lung
SF-268 CNS = tested on: SF-268 CNS
OVCAR-5 ovarian = tested on: OVCAR-5 ovarian
KM12 colon = tested on: KM12 colon
CCRF-CEM leukemia = tested on: CCRF-CEM leukemia
XF 498 CNS = tested on: XF 498 CNS
DMS 273 small cell lung = tested on: DMS 273 small cell lung

SMILES: N#Cc1cc([N+](=O)[O-])ccc1NC(=O)C(=O)C(C(=O)c1ccc2ccccc2c1)C1OCc2ccccc21 (stereo unspecified)
- TGI (NCI-H460 lung): 20.5 µM
- TGI (LOX IMVI melanoma): 29.5 µM
- TGI (UACC-62 melanoma): 36.4 µM
- TGI (COLO 205 colon): 27.8 µM
- TGI (M19-MEL melanoma): 31.6 µM
- TGI (IGROV1 ovarian): 61.6 µM
- TGI (RXF-631 renal): 37.5 µM
- TGI (SNB-75 CNS): 16.1 µM
- TGI (OVCAR-3 ovarian): > 47.6 µM
- TGI (A549 NSCLC): > 89 µM
- TGI (UACC-257 melanoma): 28.2 µM
- TGI (ACHN renal): > 71.1 µM
- TGI (SF-539 CNS): 5.83 µM
- TGI (SK-MEL-2 melanoma): 16.2 µM
- TGI (SR leukemia): 16.9 µM
- TGI (MALME-3M melanoma): 26.8 µM
- TGI (EKVX NSCLC): 37.4 µM
- TGI (HCT-15 colon): 37.7 µM
- TGI (SW-620 colon): 41.1 µM
- TGI (K-562 leukemia): 65.2 µM
- TGI (SNB-19 CNS): 21.1 µM
- TGI (DMS 114 small cell lung): 29.7 µM
- TGI (U251 CNS): 16.8 µM
- TGI (CAKI-1 renal): > 50.3 µM
- TGI (SK-OV-3 ovarian): > 100 µM
- TGI (SN12C renal): 46.5 µM
- TGI (OVCAR-8 ovarian): 20.9 µM
- TGI (HCT-116 colon): 16.2 µM
- TGI (RXF 393 renal): 12.4 µM
- TGI (SNB-78 CNS): 35.2 µM
- TGI (HL-60(TB) leukemia): 46.7 µM
- TGI (A498 renal): 20.6 µM
- TGI (OVCAR-4 ovarian): > 55.2 µM
- TGI (HCC-2998 colon): 22.7 µM
- TGI (LXFL 529 NSCLC): 13.7 µM
- TGI (SK-MEL-5 melanoma): 24.8 µM
- TGI (M14 melanoma): 30.1 µM
- TGI (MOLT-4 leukemia): 21.8 µM
- TGI (HOP-92 NSCLC): 21.6 µM
- TGI (NCI-H226 lung): 4.46 µM
- TGI (SF-295 CNS): 23.9 µM
- TGI (KM20L2 colon): 42.6 µM
- TGI (786-0 renal): 14.7 µM
- TGI (NCI-H522 lung): 13.8 µM
- TGI (HT29 colon): 32.5 µM
- TGI (UO-31 renal): 26.5 µM
- TGI (RPMI-8226 leukemia): > 66.6 µM
- TGI (SK-MEL-28 melanoma): 21.4 µM
- TGI (HOP-62 NSCLC): 15.6 µM
- TGI (DLD-1 colon): 54.2 µM
- TGI (TK-10 renal): 45.8 µM
- TGI (NCI-H23 lung): 14.9 µM
- TGI (SF-268 CNS): 47.7 µM
- TGI (OVCAR-5 ovarian): 29.2 µM
- TGI (KM12 colon): 30.4 µM
- TGI (CCRF-CEM leukemia): 39.2 µM

SMILES: COc1ccc(OC(C)C(=O)O)c2c1CCCC2=O (stereo unspecified)
- TGI (NCI-H460 lung): > 100 µM
- TGI (LOX IMVI melanoma): > 100 µM
- TGI (UACC-62 melanoma): > 100 µM
- TGI (COLO 205 colon): > 100 µM
- TGI (M19-MEL melanoma): > 100 µM
- TGI (IGROV1 ovarian): > 100 µM
- TGI (SNB-75 CNS): > 100 µM
- TGI (OVCAR-3 ovarian): > 100 µM
- TGI (A549 NSCLC): > 100 µM
- TGI (UACC-257 melanoma): > 100 µM
- TGI (ACHN renal): > 100 µM
- TGI (SF-539 CNS): > 100 µM
- TGI (SK-MEL-2 melanoma): > 100 µM
- TGI (SR leukemia): > 100 µM
- TGI (MALME-3M melanoma): > 100 µM
- TGI (EKVX NSCLC): > 100 µM
- TGI (HCT-15 colon): > 100 µM
- TGI (SW-620 colon): > 100 µM
- TGI (K-562 leukemia): > 100 µM
- TGI (SNB-19 CNS): > 100 µM
- TGI (DMS 114 small cell lung): > 100 µM
- TGI (U251 CNS): > 100 µM
- TGI (SK-OV-3 ovarian): > 100 µM
- TGI (SN12C renal): > 100 µM
- TGI (OVCAR-8 ovarian): > 100 µM
- TGI (HCT-116 colon): > 100 µM
- TGI (RXF 393 renal): > 100 µM
- TGI (SNB-78 CNS): > 100 µM
- TGI (HL-60(TB) leukemia): > 100 µM
- TGI (A498 renal): > 100 µM
- TGI (OVCAR-4 ovarian): > 100 µM
- TGI (HCC-2998 colon): > 100 µM
- TGI (LXFL 529 NSCLC): > 100 µM
- TGI (XF 498 CNS): > 100 µM
- TGI (SK-MEL-5 melanoma): > 100 µM
- TGI (M14 melanoma): > 100 µM
- TGI (MOLT-4 leukemia): > 100 µM
- TGI (NCI-H226 lung): > 100 µM
- TGI (SF-295 CNS): > 100 µM
- TGI (KM20L2 colon): > 100 µM
- TGI (786-0 renal): > 100 µM
- TGI (NCI-H522 lung): > 100 µM
- TGI (HT29 colon): > 100 µM
- TGI (UO-31 renal): > 100 µM
- TGI (RPMI-8226 leukemia): > 100 µM
- TGI (SK-MEL-28 melanoma): > 100 µM
- TGI (DMS 273 small cell lung): > 100 µM
- TGI (HOP-62 NSCLC): > 100 µM
- TGI (DLD-1 colon): > 100 µM
- TGI (TK-10 renal): > 100 µM
- TGI (NCI-H23 lung): > 100 µM
- TGI (SF-268 CNS): > 100 µM
- TGI (OVCAR-5 ovarian): > 100 µM
- TGI (KM12 colon): > 100 µM
- TGI (CCRF-CEM leukemia): > 100 µM
